Calls of active or inactive are those of the source. No cut-off for these calls is given here.
What was measured:
[1] = tested on: Calf thymus DNA; assay: Inhibition of calf thymus DNA topoisomerase 2 assessed as DNA cleavage after 30 mins by agarose gel electrophoresis; format: nucleic-acid assay, Bos taurus
[2] = molecular target: T1, DNA topoisomerase 2-alpha (Homo sapiens, UniProt P11388); assay: Inhibition of recombinant human DNA topoisomerase 2alpha expressed in topoisomerase1 deficient Saccharomyces cerevisiae JEL1 using kinetoplast DNA as substrate assessed as decantenated kDNA minicircles at 200 to 1000 uM after 15 mins by agarose gel electrophoresis
T1 sequence (P11388 whole entry): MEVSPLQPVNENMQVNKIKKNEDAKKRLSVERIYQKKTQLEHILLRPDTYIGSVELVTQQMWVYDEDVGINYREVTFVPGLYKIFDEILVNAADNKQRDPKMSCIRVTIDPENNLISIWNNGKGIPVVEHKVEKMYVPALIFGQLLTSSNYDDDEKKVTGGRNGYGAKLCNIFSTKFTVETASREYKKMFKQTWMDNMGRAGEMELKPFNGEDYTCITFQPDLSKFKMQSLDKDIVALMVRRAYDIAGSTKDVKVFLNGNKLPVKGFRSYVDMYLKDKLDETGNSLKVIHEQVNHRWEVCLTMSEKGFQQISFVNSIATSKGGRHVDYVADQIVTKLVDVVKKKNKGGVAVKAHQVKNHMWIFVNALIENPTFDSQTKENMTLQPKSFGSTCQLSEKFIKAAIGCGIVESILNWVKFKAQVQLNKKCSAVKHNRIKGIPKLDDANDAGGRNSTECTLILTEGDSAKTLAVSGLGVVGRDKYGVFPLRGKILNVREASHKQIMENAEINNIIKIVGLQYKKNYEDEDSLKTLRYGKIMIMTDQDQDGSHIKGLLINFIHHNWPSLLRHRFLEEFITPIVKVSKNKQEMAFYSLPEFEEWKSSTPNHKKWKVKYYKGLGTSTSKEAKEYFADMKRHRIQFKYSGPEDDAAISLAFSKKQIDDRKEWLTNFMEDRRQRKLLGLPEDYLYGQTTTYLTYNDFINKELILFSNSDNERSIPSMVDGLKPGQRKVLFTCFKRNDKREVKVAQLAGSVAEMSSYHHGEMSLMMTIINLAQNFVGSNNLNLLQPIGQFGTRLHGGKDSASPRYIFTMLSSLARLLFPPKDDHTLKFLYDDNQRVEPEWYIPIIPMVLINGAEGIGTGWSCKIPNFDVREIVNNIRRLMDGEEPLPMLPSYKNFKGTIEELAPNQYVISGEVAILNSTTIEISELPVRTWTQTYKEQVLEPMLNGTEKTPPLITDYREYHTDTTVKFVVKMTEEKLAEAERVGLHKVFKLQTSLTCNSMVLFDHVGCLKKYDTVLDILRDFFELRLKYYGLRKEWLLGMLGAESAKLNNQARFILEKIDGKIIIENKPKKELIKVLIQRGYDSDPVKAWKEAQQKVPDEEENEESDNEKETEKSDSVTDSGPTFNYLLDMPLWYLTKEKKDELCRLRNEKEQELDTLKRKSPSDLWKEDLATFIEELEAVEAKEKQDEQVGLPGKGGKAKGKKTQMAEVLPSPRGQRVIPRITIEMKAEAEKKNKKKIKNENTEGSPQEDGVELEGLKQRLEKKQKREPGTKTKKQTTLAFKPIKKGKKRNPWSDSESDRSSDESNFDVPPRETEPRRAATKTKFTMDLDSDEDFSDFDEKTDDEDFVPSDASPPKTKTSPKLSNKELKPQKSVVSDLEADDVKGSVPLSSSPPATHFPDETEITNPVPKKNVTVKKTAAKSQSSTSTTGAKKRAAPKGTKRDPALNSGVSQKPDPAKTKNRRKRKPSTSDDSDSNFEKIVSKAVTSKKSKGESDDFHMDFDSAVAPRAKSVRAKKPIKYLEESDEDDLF

[3] = molecular target: T1, DNA topoisomerase 2-alpha; assay: Inhibition of recombinant human DNA topoisomerase 2alpha expressed in topoisomerase1 deficient Saccharomyces cerevisiae JEL1 assessed as inhibition of DNA scission activity at 25 uM after 30 mins by agarose gel electrophoresis
[4] = molecular target: T1, DNA topoisomerase 2-alpha; assay: Activity at recombinant human DNA topoisomerase 2alpha expressed in topoisomerase1 deficient Saccharomyces cerevisiae JEL1 assessed as topoisomerase 2alpha-mediated supercoiled pBR322 DNA cleavage up to 200 uM after 15 mins by agarose gel electrophoresis
[5] = molecular target: T1, DNA topoisomerase 2-alpha; assay: Inhibition of recombinant human DNA topoisomerase 2alpha expressed in topoisomerase1 deficient Saccharomyces cerevisiae JEL1 assessed as inhibition of DNA scission activity after 30 mins by agarose gel electrophoresis
[6] = tested on: Escherichia coli; assay: Induction of DNA intercalation in relaxed pBR322 DNA assessed as conversion of relaxed DNA to negatively supercoiled DNA by measuring topoisomerase 1-mediated DNA relaxation measured up to 25 uM after 15 mins by agarose gel electrophoresis
[7] = molecular target: T1, DNA topoisomerase 2-alpha; assay: Inhibition of recombinant human DNA topoisomerase 2alpha binding to supercoiled pBR322 DNA expressed in topoisomerase1 deficient Saccharomyces cerevisiae JEL1 at 25 uM after 6 mins by electrophoretic mobility shift assay
[8] = molecular target: T1, DNA topoisomerase 2-alpha; assay: Induction of recombinant human DNA topoisomerase 2alpha binding to supercoiled pBR322 DNA expressed in topoisomerase1 deficient Saccharomyces cerevisiae JEL1 at 25 uM after 6 mins by electrophoretic mobility shift assay

Row | SMILES | IC50 [1] [µM] | inhibition [2] | inhibition [3] [%] | Activity [4] | IC50 [5] [µM] | Activity [6] | inhibition [7] | Activity [8] [%]
1 | Cc1c2ccncc2c(C)c2c1[nH]c1ccccc12 [ELLIPTECINE] | > 200 |  |  |  |  |  |  | 
2 | Cc1c2cnccc2cc2c1c1ccccc1n2C |  | Active | 40 | inactive | 40 | Active | inactive | 
3 | Cc1c2c[n+](C)ccc2cc2c1c1ccccc1n2C |  | Active | 80 | inactive | 5 | Active | inactive | 50
